Measurements: EP0536208B1, “1,2-DIHYDRO-3H-DIBENZISOQUINOLINE-1,3-DIONE ANTICANCER AGENTS” (RESEARCH CORPORATION TECHNOLOGIES, INC., priority 1990, dated 1992)
In brackets after ≈: the same amount, converted by molar mass. Like-named read-outs stand apart in the source and are kept apart here.

Key:
HT29p30 = assay: Activity against human colon tumor cells (MTT assay, 3 day drug exposure); format: cell-based; conditions: cells plated 24 hr. prior to drug addition, read-out: Concentration for 50% inhibition of colony formation for human colon tumors
Description: (§1) For example, the compounds of the present invention were evaluated for cytotoxic activities in cloned human colon carcinomas. The clonogenic assays were conducted in accordance with the procedure described hereinbelow: 1) Colony Forming Assays in Soft Agar: Fresh human or murine tumors are disaggregated into single cell suspensions using mechanical, hypoosmotic and/or enzymatic (trypsin) methods. The single cells (about 5 X 10^4-10^5) are plated in 35 mm plastic petri dishes onto a 1 ml "feeder layer" of 0.3% agar dissolved in growth medium containing 5-10% vol/vol of heat-inactivated fetal bovine serum, molten 0.3% agar and the antibiotics penicillin (100 u/mL) and streptomycin (100 ug/mL). Drug exposures can be performed for one hour or continuously (drugs added to final plating medium). Tumor cell colonies > 60 uM in size are counted by automated image analysis after 10-20 days of incubation in a humidified, 5-10% CO2-gassed environment maintained at 37°C. Inhibition of colony formation is calculated based on comparisons to control (untreated) plates wherein the growth of hundreds of colonies/plate is typical. (Salmon SE, et al., N Engl J Med 298(24):1321-1327, 1978).
(§2) Compounds of the present invention were tested for their in vitro activity in tumor cells sensitive and resistant to standard anti-cancer agents. The tumor cell lines used in this protocol are 8226 human Myeloma^1; 8226/Dox-40^2, L-1210/Murine Leukemia, multidrug resistant L-210/^3, 2780 Human Ovarian Cancer and 2780/AD^4. Each of these resistant cell lines is known as a multidrug resistant or "MDR" cell line. These cell lines produce a 170,00 molecular weight membrane protein termed the P-glycoprotein which acts as an active drug efflux pump. Thus, once a cell produces the P-glycoprotein, it has the capability of pumping out of the cell a large variety of unrelated natural products. […] The protocol for measuring the effectiveness of compounds of the present invention is as follows: 2) In Vitro Tumor Cell Viability Assays Using MTT-Dye: Tumors are processed into a single cell suspension as described above. The cells are plated at a concentration of 3-5 X 10^4/1 mL well into plastic 96-well plates. […] Afterwards the medium containing the drug is removed, the cells are "washed" by centrifugation in fresh medium or phosphate-buffered saline (pH 7.4). A tetrazolium dye is then added (3,4,5-dimethylthiazol-2-yl)-2,5-diphenyl tetrazolium bromide (MTT). This dye forms a colored formazan product upon activation by mitochondrial reductases in viable cells. Typically, the formazan product is solubilized in acid-propanol or DMSO. The intensity of the color is proportional to viable cell numbers and this is quantitated by spectrophotometric absorbance ([…]) on a micro ELISA plate reader. Test results are calibrated in % control absorbance from untreated tumor cells (Mossman T: J Immunol Meth 65:55-63, 1983). Using the above procedure, Compound 1 was tested for its cytotoxic activity with respect to various tumor cell lines.

SW80p105 = assay: as above; format: cell-based; conditions: cells plated 24 hr. prior to drug addition, read-out: Concentration for 50% inhibition of colony formation for human colon tumors
Description: as §1, §2

Resistant L1210 = assay: In vitro tumor cell viability assay using MTT dye; format: cell-based, Murine; conditions: for IC50: Mus musculus
Description: as §2

[1] = tested on: P-388 lymphocytic leukemia; assay: Survival study in tumor-bearing mice, P-388 leukemia model; format: in vivo; conditions: 10^6 cells in DBA mice; 16 mg/kg; d1,5,9; intraperitoneally
Source text: Thus, in the lower level resistant cell lines, such as the ten-fold mitomycin C resistant L1210 and the tenfold adriamycin resistant 2780 ovarian cancer, Compound 1 maintained its complete activity as shown in Table II. The anti-tumor activity of compounds of the present invention in in vivo mouse murine models were studied. 3) Survival Studies In Tumor-Bearing Mice: 3.1 P-388 Leukemia Modles: One million P-388 leukemia cells originally obtained from American Type Culture Collection (Rockville, MD) are implanted into the peritoneum of adult DBA-2J male mice (Jackson Laboratories, Bar Harbor, ME). Twenty four hours later, drugs diluted in physiological saline are injected intraperitoneally at a volume of 0.1 mL/10 g body weight. The mice (10/group) are then followed for survival daily and compared to untreated tumor bearing mice. […] The perpendicular widths of the tumors are measured by caliper thrice weekly and converted to an estimated tumor mass according to the formula: ((1 X W)^2)/(2)= grams of tumor. [formula] wherein • W = width of tumor • l = length of tumor Tumor growth delay is calculated as the difference in days for tumors in treated mice to reach an estimated mass 750 mg or 1.5 g compared to that in untreated controls: Days to reach 750 mg (Treated - Control) = Days of Tumor Growth Delay [formula] […]

[2] = tested on: 16-C Mammary Adenocarcinoma; assay: Tumor growth delay in mice, Mammary 16-C model; format: in vivo; conditions: 16-C Mammary Adenocarcinoma (Southern Research Institute)
Description: Corbett, T.H., et al., Cancer Chemo Rep., 5 (1975). Mammary 16-C Adenocarcinoma and M5-76 Sarcoma: Chunks of tumor (20-50 mg) are subcutaneously implanted into the flank of B6C3F1 female mice. Drugs (10-45 mg/kg) are dissolved in saline and injected intraperitoneally every four days for three times starting one day after tumor implantation. Tumors are measured bidimensionally as described above and tumor growth delay is calculated at times to reach 1.5 and 3.0 g of tumor mass.

In the case of `CN(C)CCN1C(=O)c2cccc3cc4ccccc4c(c23)C1=O` [Compound 1, 2-[2'-(dimethylamino)ethyl]-1,2-dihydro-3H-dibenz(deh)isoquinoline-1,3-dione], the IC50 (HT29p30) is reported as 340 nM, the IC50 (SW80p105) is reported as 150 nM and the IC50 (Resistant L1210; 144 h, Resistant L1210, six day MTT assay, continuous drug exposure, read-out: Concentration for 50% inhibition of tumor cells) is reported as 2.5 ng/mL (≈ 7.85 nM). For the same molecule, the IC50 (Resistant L1210; L1210, 96 h, L-1210/ MDR, P-glycoprotein (+), 10-fold resistance to Mitomycin C, 4-day drug exposure, MTT dye reduction, read-out: Activity (IC50)) was 3 ng/mL (≈ 9.42 nM), the IC50 (Resistant L1210; L1210 Leukemia Cells Resistant, continuous exposure, MTT dye assay, read-out: IC50 VALUES) was 2.5 ng/mL (≈ 7.85 nM) and the “Cross Resistance” value (Resistant L1210; resistant L-1210/ versus L-1210/Murine Leukemia) was “None”. The “Experimental Activity, ILS (Percentage Increased Lifespan)” value [1] was 00:ILS* and the “Experimental Activity, Days of Tumor Growth Delay” value [2] was 7 days TT.
